In ChEMBL document CHEMBL5625185 (Eur J Med Chem, 2023):

How the values were obtained:
Format in all cases: ADME, organism-based
Conditions in all cases: in vivo; call rule not given here
[1] = Drug distribution in wild type mouse brain at 50 mg/kg, po measured after 1 hr by UPLC-QTOFMS analysis
[2] = Drug distribution in wild type mouse lung at 50 mg/kg, po measured after 1 hr by UPLC-QTOFMS analysis
[3] = Drug distribution in wild type mouse liver at 50 mg/kg, po measured after 1 hr by UPLC-QTOFMS analysis
[4] = Cmax in wild type mouse at 50 mg/kg, po measured upto 8 hrs by UPLC-QTOFMS analysis
[5] = Drug distribution in wild type mouse spleen at 50 mg/kg, po measured after 1 hr by UPLC-QTOFMS analysis
[6] = Drug distribution in wild type mouse testis at 50 mg/kg, po measured after 1 hr by UPLC-QTOFMS analysis
[7] = Drug distribution in wild type mouse kidney at 50 mg/kg, po measured after 1 hr by UPLC-QTOFMS analysis

Row | Structure (SMILES) | Drug uptake [1] | Drug uptake [2] | Drug uptake [3] | Cmax [4] [µM] | Drug uptake [5] | Drug uptake [6] | Drug uptake [7]
1 | COc1ccc2c3c([nH]c2c1)[C@H](CC(C)C)N1C(=O)[C@H](CCC(=O)NC(C)C)NC(=O)[C@@H]1C3 | Not Active | Active | Active | 8.74 | Active | Not Active | Active
2 | COc1ccc2c3c([nH]c2c1)[C@H](CC(C)C)N1C(=O)[C@H](CCC(=O)NC(C)(C)C)NC(=O)[C@@H]1C3 | Not Active | Active | Active |  | Active | Not Active | Active
